Measurements from patent publication US10800791B2, “Triazole ACC inhibitors and uses thereof” (Gilead Apollo, LLC, priority 2015, dated 2020).
≈ marks a conversion by molar mass, not a printed value. Where two headings read alike, the source gives them in different places.

Legend:
human (hACC2) = human (hACC2) (Homo sapiens, UniProt O00763); experiment: In vitro ACC inhibition assay (ADP-Glo), hACC2; format: biochemical; conditions: 5 nM ACC2, 20 μM ATP, 20 μM acetyl-CoA
Protocol: The detailed procedure is as follows. […] 10 μL ADP glo reagent was added. […] 20 μL kinase detection reagent was added.

C. albicans = experiment: Antifungal Activity Assay (broth microtiter MIC), C. albicans; format: cell-based, Candida albicans; conditions: Candida albicans, ATCC90028, 48 h
In short: (§1)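 Endpoint: lowest concentration visibly inhibiting growth relative to control after 48 h. Inoculum of 2.5×10^3 CFU/mL final in RPMI 1640+MOPS, prepared from overnight 35° C agar cultures; test compounds diluted in water to 128 μg/mL before plating.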

C. krusei = experiment: Antifungal Activity Assay (broth microtiter MIC), C. krusei; format: cell-based, Candida krusei; conditions: Pichia kudriavzevii, ATCC6258, 48 h
In short: as §1

C. parapsilosis = experiment: Antifungal Activity Assay (broth microtiter MIC), C. parapsilosis; format: cell-based, Candida parapsilosis; conditions: Lodderomyces parapsilosis, ATCC22019, 48 h
In short: as §1

[1] = system: Collectotrichum graminicola (Cg); experiment: Growth inhibition assay of fungal pathogens, Cg; format: cell-based; conditions: 48 h
In short: (§2)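 Inhibition percentages reflect 48 h OD600 and visual scores relative to a 2% DMSO control. Test concentrations were 50, 10, 2 ppm or 2, 0.4, 0.08 ppm final, applied to spores in 17% V8 medium.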

Diplodia maydis (Dm) = experiment: Growth inhibition assay of fungal pathogens, Dm; format: cell-based; conditions: Stenocarpella maydis, 48 h
In short: as §2

[2] = system: Fusarium moniliforme (Fm); experiment: Growth inhibition assay of fungal pathogens, Fm; format: cell-based; conditions: for IC90: Fusarium verticillioides, 48 h, read-out: Concentration at 90% Inhibition Fm
In short: as §2

[3] = system: Fusarium virguliforme (Fv); experiment: Growth inhibition assay of fungal pathogens, Fv; format: cell-based; conditions: 48 h
In short: as §2

[4] = system: Phytophthora capsici (Pc); experiment: Growth inhibition assay of fungal pathogens, Pc; format: cell-based; conditions: 48 h
In short: as §2

Rhizoctonia solani (Rs) = experiment: Growth inhibition assay of fungal pathogens, Rs; format: cell-based; conditions: 48 h
Septoria tritici (St) = experiment: Growth inhibition assay of fungal pathogens, St; format: cell-based; conditions: Zymoseptoria tritici, 48 h
In short: as §2

[5] = Table 3a, ATCC 90028, 3 replicates, MIC recorded at 48 h, read-out: MIC, C. albicans ATCC 90028
[6] = Table 3b (additional results), ATCC 90028, 3 replicates, MIC recorded at 48 h, read-out: MIC, C. albicans ATCC 90028
[7] = Table 3a, ATCC 6258, 3 replicates, MIC recorded at 48 h, read-out: MIC, C. krusei ATCC 6258
[8] = Table 3b (additional results), ATCC 6258, 3 replicates, MIC recorded at 48 h, read-out: MIC, C. krusei ATCC 6258
[9] = Table 3a, ATCC 22019, 3 replicates, MIC recorded at 48 h, read-out: MIC, C. parapsilosis ATCC 22019
[10] = Table 3b (additional results), ATCC 22019, 3 replicates, MIC recorded at 48 h, read-out: MIC, C. parapsilosis ATCC 22019
[11] = Collectotrichum graminicola, growth inhibition at 48 hours vs 2% DMSO control, read-out: Concentration at 90% Inhibition Cg
[12] = Collectotrichum graminicola, growth inhibition vs 2% DMSO control at 48 hours, read-out: Concentration at 90% Inhibition Cg
[13] = Diplodia maydis, growth inhibition at 48 hours vs 2% DMSO control, read-out: Concentration at 90% Inhibition Dm
[14] = Diplodia maydis, growth inhibition vs 2% DMSO control at 48 hours, read-out: Concentration at 90% Inhibition Dm
[15] = Fusarium moniliforme, growth inhibition at 48 hours vs 2% DMSO control
[16] = Fusarium moniliforme, growth inhibition vs 2% DMSO control at 48 hours
[17] = growth inhibition at 48 hours vs 2% DMSO control, read-out: Concentration at 90% Inhibition Fv
[18] = growth inhibition vs 2% DMSO control at 48 hours, read-out: Concentration at 90% Inhibition Fv
[19] = growth inhibition at 48 hours vs 2% DMSO control, read-out: Concentration at 90% Inhibition Pc
[20] = growth inhibition vs 2% DMSO control at 48 hours, read-out: Concentration at 90% Inhibition Pc
[21] = mycelial plugs, growth inhibition at 48 hours vs 2% DMSO control, read-out: Concentration at 90% Inhibition Rs
[22] = mycelial plugs, growth inhibition vs 2% DMSO control at 48 hours, read-out: Concentration at 90% Inhibition Rs
[23] = Septoria tritici, growth inhibition at 48 hours vs 2% DMSO control, read-out: Concentration at 90% Inhibition St
[24] = Septoria tritici, growth inhibition vs 2% DMSO control at 48 hours, read-out: Concentration at 90% Inhibition St

Chain of human (hACC2) (O00763 whole entry): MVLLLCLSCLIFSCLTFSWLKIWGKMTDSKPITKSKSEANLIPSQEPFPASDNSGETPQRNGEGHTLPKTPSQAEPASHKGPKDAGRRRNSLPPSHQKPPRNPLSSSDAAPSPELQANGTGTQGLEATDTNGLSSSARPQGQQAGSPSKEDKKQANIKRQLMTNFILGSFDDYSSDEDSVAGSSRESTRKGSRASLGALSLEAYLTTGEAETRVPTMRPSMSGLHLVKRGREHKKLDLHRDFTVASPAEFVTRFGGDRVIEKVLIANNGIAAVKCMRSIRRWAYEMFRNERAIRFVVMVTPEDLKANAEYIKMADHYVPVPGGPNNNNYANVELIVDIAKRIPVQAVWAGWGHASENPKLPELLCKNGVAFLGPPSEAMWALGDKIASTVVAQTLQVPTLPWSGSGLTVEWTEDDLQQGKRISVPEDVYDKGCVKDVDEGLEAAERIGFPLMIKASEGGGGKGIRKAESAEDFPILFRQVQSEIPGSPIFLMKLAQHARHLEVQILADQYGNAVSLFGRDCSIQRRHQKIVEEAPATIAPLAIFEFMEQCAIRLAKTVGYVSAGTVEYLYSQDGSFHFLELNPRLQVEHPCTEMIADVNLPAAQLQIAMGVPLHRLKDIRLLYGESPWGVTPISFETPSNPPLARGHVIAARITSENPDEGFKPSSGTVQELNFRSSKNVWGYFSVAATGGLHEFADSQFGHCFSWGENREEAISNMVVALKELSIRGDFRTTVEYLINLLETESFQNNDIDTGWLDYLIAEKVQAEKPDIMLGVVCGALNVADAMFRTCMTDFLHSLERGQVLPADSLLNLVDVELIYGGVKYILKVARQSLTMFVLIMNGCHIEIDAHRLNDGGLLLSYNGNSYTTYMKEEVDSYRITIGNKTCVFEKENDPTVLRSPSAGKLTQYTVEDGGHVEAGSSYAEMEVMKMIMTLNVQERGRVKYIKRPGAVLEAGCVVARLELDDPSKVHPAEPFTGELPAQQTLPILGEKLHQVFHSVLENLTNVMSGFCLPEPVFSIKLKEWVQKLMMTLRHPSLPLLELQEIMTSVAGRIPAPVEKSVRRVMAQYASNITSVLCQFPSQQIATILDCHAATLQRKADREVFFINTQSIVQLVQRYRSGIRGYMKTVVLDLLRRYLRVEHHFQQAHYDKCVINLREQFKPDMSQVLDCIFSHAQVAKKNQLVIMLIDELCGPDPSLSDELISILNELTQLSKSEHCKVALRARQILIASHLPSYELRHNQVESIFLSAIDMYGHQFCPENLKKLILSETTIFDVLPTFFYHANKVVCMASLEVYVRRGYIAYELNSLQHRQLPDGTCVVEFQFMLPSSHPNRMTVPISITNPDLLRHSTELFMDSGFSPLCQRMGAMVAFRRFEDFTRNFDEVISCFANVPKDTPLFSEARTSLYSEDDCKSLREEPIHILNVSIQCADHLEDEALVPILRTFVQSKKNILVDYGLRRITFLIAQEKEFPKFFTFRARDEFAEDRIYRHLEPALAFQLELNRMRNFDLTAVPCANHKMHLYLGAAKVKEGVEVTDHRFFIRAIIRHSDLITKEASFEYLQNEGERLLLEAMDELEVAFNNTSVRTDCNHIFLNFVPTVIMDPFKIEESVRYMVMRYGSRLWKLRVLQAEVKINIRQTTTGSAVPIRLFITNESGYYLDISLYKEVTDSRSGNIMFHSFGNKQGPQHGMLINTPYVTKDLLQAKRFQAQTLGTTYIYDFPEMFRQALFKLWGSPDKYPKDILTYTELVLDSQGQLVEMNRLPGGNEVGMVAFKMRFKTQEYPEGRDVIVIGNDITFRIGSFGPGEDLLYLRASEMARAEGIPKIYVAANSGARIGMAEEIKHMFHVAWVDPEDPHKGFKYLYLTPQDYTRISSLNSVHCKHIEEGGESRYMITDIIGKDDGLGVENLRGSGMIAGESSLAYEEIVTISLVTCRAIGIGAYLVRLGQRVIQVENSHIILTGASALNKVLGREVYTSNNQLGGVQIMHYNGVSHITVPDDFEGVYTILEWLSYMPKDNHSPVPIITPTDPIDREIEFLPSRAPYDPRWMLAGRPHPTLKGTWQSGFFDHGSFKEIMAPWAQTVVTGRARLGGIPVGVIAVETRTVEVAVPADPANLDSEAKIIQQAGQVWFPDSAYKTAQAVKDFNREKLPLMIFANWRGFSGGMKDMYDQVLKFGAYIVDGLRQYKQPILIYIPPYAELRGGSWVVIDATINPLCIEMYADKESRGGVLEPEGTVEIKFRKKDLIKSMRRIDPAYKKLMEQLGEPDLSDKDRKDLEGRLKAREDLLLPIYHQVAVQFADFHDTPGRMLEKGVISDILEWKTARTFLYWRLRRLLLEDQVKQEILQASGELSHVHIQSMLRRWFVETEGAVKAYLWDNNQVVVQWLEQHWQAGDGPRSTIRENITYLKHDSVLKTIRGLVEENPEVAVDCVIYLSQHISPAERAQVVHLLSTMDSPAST

Structure (SMILES)	IC50 (human (hACC2); Table 2a) [µM]	IC50 (human (hACC2); Table 2b, additional results) [µM]	MIC (C. albicans; [5]) [µg/mL]	MIC (C. albicans; [6]) [µg/mL]	MIC (C. krusei; [7]) [µg/mL]	MIC (C. krusei; [8]) [µg/mL]	MIC (C. parapsilosis; [9]) [µg/mL]	MIC (C. parapsilosis; [10]) [µg/mL]	IC90 [1, 11] [µg/mL]	IC90 [1, 12] [µg/mL]	IC90 (Diplodia maydis (Dm); [13]) [µg/mL]	IC90 (Diplodia maydis (Dm); [14]) [µg/mL]	IC90 [2, 15] [µg/mL]	IC90 [2, 16] [µg/mL]	IC90 [3, 17] [µg/mL]	IC90 [3, 18] [µg/mL]	IC90 [4, 19] [µg/mL]	IC90 [4, 20] [µg/mL]	IC90 (Rhizoctonia solani (Rs); [21]) [µg/mL]	IC90 (Rhizoctonia solani (Rs); [22]) [µg/mL]	also measured
COc1ccc(F)cc1[C@H](Cn1c(=O)n(C(C)(C)C(N)=O)c(=O)c2c(C)c(-n3nccn3)sc21)OCC(C)C [Compound I-8, (R)-2-(1-(2-(5-fluoro-2-methoxyphenyl)-2-isobutoxyethyl)-5-methyl-2,4-dioxo-6-(2H-1,2,3-triazol-2-yl)-1,4-dihydrothieno[2,3-d]pyrimidin-3(2H)-yl)-2-methylpropanamide]	0.005 to 0.01	0.005 to 0.01	1.1 to 2 (≈ 1.97 to 3.58 µM)	1.01 to 2 (≈ 1.81 to 3.58 µM)	1.1 to 2 (≈ 1.97 to 3.58 µM)	1.01 to 2 (≈ 1.81 to 3.58 µM)	2.1 to 4 (≈ 3.76 to 7.16 µM)	2.01 to 4 (≈ 3.6 to 7.16 µM)	2 (≈ 3.58 µM)	2 (≈ 3.58 µM)	2 (≈ 3.58 µM)	2 (≈ 3.58 µM)	0.08 (≈ 0.143 µM)	0.08 (≈ 0.143 µM)	2 (≈ 3.58 µM)	2 (≈ 3.58 µM)	> 50	> 50	2 (≈ 3.58 µM)	2 (≈ 3.58 µM)	IC90 (Septoria tritici (St); [23]): > 50 µg/mL; IC90 (Septoria tritici (St); [24]): > 50 µg/mL
CCNC(=O)C(C)(C)n1c(=O)c2c(C)c(-n3nccn3)sc2n(C[C@H](OCC(C)C)c2cc(F)ccc2OC)c1=O [Compound I-9, (R)—N-ethyl-2-(1-(2-(5-fluoro-2-methoxyphenyl)-2-isobutoxyethyl)-5-methyl-2,4-dioxo-6-(2H-1,2,3-triazol-2-yl)-1,4-dihydrothieno[2,3-d]pyrimidin-3(2H)-yl)-2-methylpropanamide]	0.005 to 0.01	0.001 to 0.005	2.1 to 4 (≈ 3.58 to 6.82 µM)	1.01 to 2 (≈ 1.72 to 3.41 µM)	0.25 to 1 (≈ 0.426 to 1.7 µM)	0.25 to 1 (≈ 0.426 to 1.7 µM)	2.1 to 4 (≈ 3.58 to 6.82 µM)	1.01 to 2 (≈ 1.72 to 3.41 µM)	0.4 (≈ 0.682 µM)	0.4 (≈ 0.682 µM)	0.4 (≈ 0.682 µM)	0.4 (≈ 0.682 µM)	0.08 (≈ 0.136 µM)	0.08 (≈ 0.136 µM)	0.4 (≈ 0.682 µM)	0.4 (≈ 0.682 µM)	> 50	> 50	0.4 (≈ 0.682 µM)	0.4 (≈ 0.682 µM)	IC90 (Septoria tritici (St); [23]): 10 µg/mL (≈ 17 µM); IC90 (Septoria tritici (St); [24]): > 50 µg/mL
COc1ccc(F)cc1[C@H](Cn1c(=O)n(C(C)(C)C(=O)N2CCCCC2)c(=O)c2c(C)c(-n3nccn3)sc21)OCC(C)C [Compound I-11, (R)-1-(2-(5-fluoro-2-methoxyphenyl)-2-isobutoxyethyl)-5-methyl-3-(2-methyl-1-oxo-1-(piperidin-1-yl)propan-2-yl)-6-(2H-1,2,3-triazol-2-yl)thieno[2,3-d]pyrimidine-2,4(1H,3H)-dione]	0.01 to 0.04	0.01 to 0.04	–	–	–	–	–	–	–	–	–	–	–	–	–	–	–	–	–	–	MIC (C. albicans; read-out: MIC, C. albicans ATCC 90028, Table 3a, 3 replicates, MIC recorded at 48 h): 1.1 to 2 µg/mL (≈ 1.76 to 3.19 µM); MIC (C. albicans; read-out: MIC, C. albicans ATCC 90028, Table 3b (additional results), 3 replicates, MIC recorded at 48 h): 0.25 to 1 µg/mL (≈ 0.399 to 1.6 µM); MIC (C. krusei; read-out: MIC, C. krusei ATCC 6258, Table 3a, 3 replicates, MIC recorded at 48 h): 1.1 to 2 µg/mL (≈ 1.76 to 3.19 µM); MIC (C. krusei; read-out: MIC, C. krusei ATCC 6258, Table 3b (additional results), 3 replicates, MIC recorded at 48 h): 0.25 to 1 µg/mL (≈ 0.399 to 1.6 µM); MIC (C. parapsilosis; read-out: MIC, C. parapsilosis ATCC 22019, Table 3a, 3 replicates, MIC recorded at 48 h): 1.1 to 2 µg/mL (≈ 1.76 to 3.19 µM); MIC (C. parapsilosis; read-out: MIC, C. parapsilosis ATCC 22019, Table 3b (additional results), 3 replicates, MIC recorded at 48 h): 1.01 to 2 µg/mL (≈ 1.61 to 3.19 µM); IC90 ([1]; read-out: Concentration at 90% Inhibition Cg, Collectotrichum graminicola, growth inhibition at 48 hours vs 2% DMSO control): 0.4 µg/mL (≈ 0.638 µM); IC90 ([1]; read-out: Concentration at 90% Inhibition Cg, Collectotrichum graminicola, growth inhibition vs 2% DMSO control at 48 hours): 0.4 µg/mL (≈ 0.638 µM); IC90 (Diplodia maydis (Dm); read-out: Concentration at 90% Inhibition Dm, Diplodia maydis, growth inhibition at 48 hours vs 2% DMSO control): 0.4 µg/mL (≈ 0.638 µM); IC90 (Diplodia maydis (Dm); read-out: Concentration at 90% Inhibition Dm, Diplodia maydis, growth inhibition vs 2% DMSO control at 48 hours): 0.4 µg/mL (≈ 0.638 µM); Concentration at 90% Inhibition Fm [2, 15]: AA (compound concentration of 0.08 ppm at 90% inhibition of fungal pathogens); IC90 [2]: 0.08 µg/mL (≈ 0.128 µM); IC90 ([3]; read-out: Concentration at 90% Inhibition Fv, Fusarium virguliforme, growth inhibition at 48 hours vs 2% DMSO control): 2 µg/mL (≈ 3.19 µM); IC90 ([3]; read-out: Concentration at 90% Inhibition Fv, Fusarium virguliforme, growth inhibition vs 2% DMSO control at 48 hours): 2 µg/mL (≈ 3.19 µM); IC90 ([4]; read-out: Concentration at 90% Inhibition Pc, Phytophthora capsici, growth inhibition at 48 hours vs 2% DMSO control): > 50 µg/mL; IC90 ([4]; read-out: Concentration at 90% Inhibition Pc, Phytophthora capsici, growth inhibition vs 2% DMSO control at 48 hours): > 50 µg/mL; IC90 (Rhizoctonia solani (Rs); read-out: Concentration at 90% Inhibition Rs, Rhizoctonia solani, mycelial plugs, growth inhibition at 48 hours vs 2% DMSO control): 0.4 µg/mL (≈ 0.638 µM); IC90 (Rhizoctonia solani (Rs); read-out: Concentration at 90% Inhibition Rs, Rhizoctonia solani, mycelial plugs, growth inhibition vs 2% DMSO control at 48 hours): 0.4 µg/mL (≈ 0.638 µM); IC90 (Septoria tritici (St); read-out: Concentration at 90% Inhibition St, Septoria tritici, growth inhibition at 48 hours vs 2% DMSO control): 10 µg/mL (≈ 16 µM); IC90 (Septoria tritici (St); read-out: Concentration at 90% Inhibition St, Septoria tritici, growth inhibition vs 2% DMSO control at 48 hours): > 50 µg/mL
